Experimental data taken from article PMC6112376, “Comprehensive Analyses and Prioritization of Tox21 10K Chemicals Affecting Mitochondrial Function by in-Depth Mechanistic Studies” (Environmental Health Perspectives, 2018).
Where a name gives a salt, the structure may show the parent alone. Read-outs that look alike come from different tables or passages of the source.

Key:
rat primary hepatocytes [1] = test: MMP assay in rat primary hepatocytes; details: for IC50: Rattus norvegicus, Hepatocyte, read-out: MMP assays IC50 (µM) Rat Hepatocytes
HepG2 cells [2] = details: cited from earlier work
rat primary hepatocytes [3] = test system: rat primary hepatocytes
HepG2 cells [4] = test: cells; details: Homo sapiens; for IC50: HepG2, read-out: MMP assays IC50 (µM) HepG2; for Emax: HepG2, read-out: MMP assays efficacy (%) HepG2
[5] = read-out: MMP assays IC50 (µM), qHTS-HepG2
[6] = read-out: MMP assays IC50 (µM) qHTS-HepG2

| SMILES | MMP assays IC50 (µM) Rat Hepatocytes (rat primary hepatocytes [1]) | MMP assays efficacy (%) qHTS-HepG2 (HepG2 cells [2]) | IC50 (HepG2 cells [2]; [5]) | MMP assays efficacy (%) Rat Hepatocytes (rat primary hepatocytes [3]) | IC50 (HepG2 cells [4]) | Emax (HepG2 cells [4]) | IC50 (rat primary hepatocytes [1]) | IC50 (HepG2 cells [2]; [6]) |
| --- | --- | --- | --- | --- | --- | --- | --- | --- |
| CCC(=O)c1c(O)cc(O)cc1O [Flopropione] | inactive | -111±23% | 18.8 ± 6.83 µM | inactive | 17.3 µM | 103% | – | – |
| CC(=O)O[C@H]1C[C@H](O[C@H]2[C@@H](O)C[C@H](O[C@H]3[C@@H](O)C[C@H](OC4CC[C@@]5(C)[C@H](CC[C@@H]6[C@@H]5CC[C@]5(C)[C@@H](C7=CC(=O)OC7)CC[C@]65O)C4)O[C@@H]3C)O[C@@H]2C)O[C@H](C)[C@H]1O[C@@H]1O[C@H](CO)[C@@H](O)[C@H](O)[C@H]1O (stereo partly drawn) [Lanatoside A] | inactive | -69±2% | 0.43 ± 0.04 µM | inactive | 0.14 µM | 91% | – | – |
| Oc1ccc(C2(c3ccc(O)cc3)CCCCC2)cc1 [Bisphenol Z] | – | -101±12% | – | -34±12% | 19.9 µM | 113% | 14.7 ± 15.1 µM | 22.2 ± 5.51 µM |
| Brc1ccc(Oc2ccc(Br)cc2Br)c(Br)c1 [2,2'4,4'-Tetrabromodiphenyl ether] | – | -119±10% | – | -42±10% | 39.8 µM | 104% | 25.6 ± 34.7 µM | 22.6 ± 5.18 µM |
| O=[N+]([O-])c1ccc2c3c(cccc13)CC2 [Compound 5-Nitroacenaphthene] | – | -82±23% | – | -78±25% | 56.2 µM | 50% | 24 ± 16.2 µM | 34.4 ± 20.4 µM |
| C#C[C@]1(O)CC[C@H]2[C@@H]3CCC4=CCCC[C@@H]4[C@H]3C(=C)C[C@@]21CC [Desogestrel] | inactive | -125±21% | – | inactive | 27.5 µM | 84% | – | 22.3 ± 2.11 µM |
| Clc1ccc(C(c2ccc(Cl)cc2)C(Cl)(Cl)Cl)cc1 [p,p'-DDT] | inactive | -99±12% | 24.3 ± 2.74 µM | inactive | 30.8 µM | 69% | – | – |
| BrC1CCC(Br)C(Br)CCC(Br)C(Br)CCC1Br (stereo not drawn) [1,2,5,6,9,10-Hexabromocyclododecane] | – | -96±6% | – | -89±40% | 6.31 µM | 105% | 32 ± 16.5 µM | 6.93 ± 1.95 µM |
| Oc1cc(Cl)cc(Cl)c1 [3,5-Dichlorophenol] | – | -96±8% | – | -81±35% | 11.2 µM | 113% | 46.9 ± 8.44 µM | 9.79 µM |
| Cc1c(Cl)cccc1Nc1ccccc1C(=O)O [Tolfenamic acid] | – | -115±7% | 11.9 µM | -105±5% | 17.3 µM | 98% | 14.8 ± 4.38 µM | – |
| Cc1ccc2ccc3cccc4ccc1c2c34 [Compound 1-Methylpyrene] | – | -112±32% | – | -57±10% | 39.8 µM | 112% | 32.2 ± 7.36 µM | 43.2 ± 4.99 µM |
| CN1C(C(=O)Nc2ccccn2)=C(O)c2ccccc2S1(=O)=O [Piroxicam] | – | -109±18% | 8.21 ± 1.71 µM | -84±3% | 5.88 µM | 103% | 4.79 ± 1.53 µM | – |
| Cc1ccccc1C(=O)Nc1cccc(OC(C)C)c1 [Mepronil] | – | -73±6% | 40.9 ± 19.2 µM | -39±16% | 39.8 µM | 72% | 56.2 µM | – |
| CCOc1ccccc1OCCN[C@H](C)Cc1ccc(OC)c(S(N)(=O)=O)c1 [Tamsulosin hydrochloride] | – | -70±8% | 27.2 ± 2.92 µM | -45±27% | 30.8 µM | 80% | 25.1 ± 8.04 µM | – |
| C#C[C@]1(O)CC[C@H]2[C@@H]3CCc4cc(O)ccc4[C@H]3CC[C@@]21C [Compound 17alpha-Ethinylestradiol] | – | -95±9% | – | -42±1% | 15.5 µM | 107% | 18.4 ± 1.5 µM | 19.1 ± 5.99 µM |
| COc1ccc2cc3[n+](cc2c1OC)CCc1cc2c(cc1-3)OCO2 [Berberine chloride] | – | -95±8% | – | -101±32% | 3.46 µM | 92% | 6.03 ± 3.78 µM | 2.03 ± 1.29 µM |
